Results reported in patent US7432259B2, “Spiro-piperidine derivatives” (Hoffmann-La Roche Inc., priority 2006, dated 2008).

Molecular target: T1, human V1a receptor (Homo sapiens, UniProt P37288)
T1 construct: expressed in transfected cells; host or cells: HEK293 cells, transiently transfected; cell membranes used
Test: human V1a receptor binding study (3H-Vasopressin SPA, membranes of transfected HEK293 cells)
Settings: membranes of HEK293 cells transiently transfected with human V1a receptor, Ki by Cheng-Prussoff equation, read-out: pKi(hV1a) (converted)
Procedure: The human V1a receptor was cloned by RT-PCR from total human liver RNA. The coding sequence was subcloned in an expression vector after sequencing to confirm the identity of the amplified sequence. […] Cell membranes were prepared from HEK293 cells transiently transfected with the expression vector and grown in 20 liter fermenters with the following protocol.
50 g of cells were resuspended in 30 ml freshly prepared ice cold Lysis buffer (50 mM HEPES, 1 mM EDTA, 10 mM MgCl2 adjusted to pH=7.4+complete cocktail of protease inhibitor (Roche Diagnostics)). Homogenized with Polytron for 1 min and sonicated on ice for 2×2 minutes at 80%, intensity (Vibracell sonicator). The preparation was centrifuged 20 min at 500 g at 4° C., the pellet was discarded and the supernatant centrifuged 1 hour at 43,000 g at 4° C. (19,000 rpm). The pellet was resuspended in 12.5 ml Lysis buffer+12.5 ml Sucrose 20% and homogenized using a Polytron for 1-2 min. The protein concentration was determined by the Bradford method and aliquots were stored at −80° C. until use. For binding studies 60 mg Yttrium silicate SPA beads (Amersham) were mixed with an aliquot of membrane in binding buffer (50 mM Tris, 120 mM NaCl, 5 mM KCl, 2 mM CaCl2, 10 mM MgCl2) for 15 minutes with mixing. 50 ul of bead/membrane mixture was then added to each well of a 96 well plate, followed by 50 ul of 4 nM 3H-Vasopressin (American Radiolabeled Chemicals). For total binding measurement 100 ul of binding buffer were added to the respective wells, for non-specific binding 100 ul of 8.4 mM cold vasopressin and for compound testing 100 ul of a serial dilution of each compound in 2% DMSO. The plate was incubated 1 h at room temperature, centrifuged 1 min at 1000 g and counted on a Packard Top-Count. Non-specific binding counts were subtracted from each well and data was normalized to the maximum specific binding set at 100%. To calculate an IC 50 the curve was fitted using a non-linear regression model (XLfit) and the Ki was calculated using the Cheng-Prussoff equation.

T1 sequence (P37288 whole entry): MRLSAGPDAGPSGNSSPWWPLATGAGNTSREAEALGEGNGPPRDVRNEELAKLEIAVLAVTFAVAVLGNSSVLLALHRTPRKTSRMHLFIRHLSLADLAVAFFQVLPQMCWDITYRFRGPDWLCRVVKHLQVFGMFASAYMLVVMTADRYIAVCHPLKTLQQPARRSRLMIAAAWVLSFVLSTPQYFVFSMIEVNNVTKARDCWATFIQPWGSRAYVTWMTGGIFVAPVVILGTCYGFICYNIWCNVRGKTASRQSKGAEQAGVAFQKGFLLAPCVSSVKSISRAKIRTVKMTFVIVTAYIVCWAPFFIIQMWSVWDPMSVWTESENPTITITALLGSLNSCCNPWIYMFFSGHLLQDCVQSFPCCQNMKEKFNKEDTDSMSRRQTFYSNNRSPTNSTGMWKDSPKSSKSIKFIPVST

Ki | Structure (SMILES)
47.3 nM | N#CCn1c(C(=O)N2CCC3(CC2)CC(=O)Nc2ccc(Br)cc23)cc2cc(Cl)ccc21 [Example 7, {2-[(6′-Bromo-2′-oxo-2′,3′-dihydro-1H,1′H-spiro[piperidine-4,4′-quinolin]-1-yl)carbonyl]-5-chloro-1H-indol-1-yl}acetonitrile]
29.9 nM | Cn1c(C(=O)N2CCC3(CC2)OC(=O)Nc2ccccc23)cc2cc(Cl)ccc21 [Example 14, 1′-[(5-Chloro-1-methyl-1H-indol-2-yl)carbonyl]spiro[3,1-benzoxazine-4,4′-piperidin]-2(1H)-one]
60.3 nM | N#CCn1c(C(=O)N2CCC3(CC2)OC(=O)Nc2ccccc23)cc2ccccc21 [Example 15, {2-[(2-Oxo-1,2-dihydro-1′H-spiro[3,1-benzoxazine-4,4′-piperidin]-1′-yl)carbonyl]-1H-indol-1-yl}acetonitrile]
10.6 nM | N#CCn1c(C(=O)N2CCC3(CC2)OC(=O)Nc2ccccc23)cc2cc(Cl)ccc21 [Example 16, {5-Chloro-2-[(2-oxo-1,2-dihydro-1′H-spiro[3,1-benzoxazine-4,4′-piperidin]-1′-yl)carbonyl]-1H-indol-1-yl}acetonitrile]
